Publication PMC6994103 (PLoS Neglected Tropical Diseases, 2020)
Where “and” joins values, the source holds several entries; their conditions need not be identical. Identical values can stand only once.

Experiments:
VERO cells = experiment: Toxicity assay in VERO cells (gentian violet staining); assay type: cell-based, African green monkey; conditions: IC50 in VERO cells / IC50 in trypomastigotes (Y strain)
Method: (§1) VERO cells (African green monkey Kidney, ATCC CCL-81) were cultured in MEM medium supplemented with 10% heat inactivated FCS, 0.15% (w/v) NaHCO3, 100 U/mL penicillin and 100 U/mL streptomycin at 37°C in 5% CO2.
(§2) The toxicity of the compounds was determined in VERO cells by the gentian violet staining assay. Briefly, the cells (1 x10^4 cells/well) were incubated in 96-well plates with the indicated compound or dimethyl sulfoxide (DMSO) as negative control and maintained at 37° C for 24 h. Then the cells were fixed for 15 min, and stained with 0.5% gentian violet. The absorbance was measured at 570 nm. The selectivity index (SI) was calculated for each CV analogue as the ratio between the IC50 obtained in mammalian cells and the IC50 in trypomastigotes. For the combined treatment, the results were presented as percentage of untreated cells.

[1] = as above; assay type: cell-based, African green monkey; conditions: African green monkey, VERO cells, 24 h, read-out: viability of the VERO cells, percentage of untreated cells
Method: as §1, §2

[2] = test system: T. cruzi epimastigotes Y strain; experiment: Synergism BZL with LTD-CPH-CFZ in epimastigotes, Y strain (CompuSyn); assay type: cell-based, Trypanosoma cruzi
Method: Parasites´ growth was evaluated at different concentrations of BZL, CV and CV structural analogues, and parasite proliferation was determined after 48 h. […] Growth was determined by counting in a Neubauer chamber and viability assays by using “Cell Titer 96 Aqueous One Solution Cell Proliferation Assay (MTS)” (Promega, Madison, WI, USA) according to the manufacturer’s instructions. Amastigotes were fixed with methanol, stained and mounted with Vectashield with DAPI (Vector Laboratories, Burlingame, CA, USA), and then the non-lysed cells were counted by using fluorescence microscopy. Calculations were performed using CompuSyn software (http://combosyn.com) which is based on the median-effect equation [48] and its extension, the combination index.

In the case of `O=C(Cn1ccnc1[N+](=O)[O-])NCc1ccccc1` [Benznidazole], the “Selectivity Index” value (VERO cells) is reported as over 67, the viability at 24 h, 5 µM ([1]; BZL 5.0 µM + LTD-CPH-CFZ 0 µM) is reported as 96.6% and the viability at 24 h, 10 µM ([1]; BZL 10.0 µM + LTD-CPH-CFZ 0 µM) is reported as 97.5%. For the same molecule, the viability at 24 h, 50 µM ([1]; BZL 50.0 µM + LTD-CPH-CFZ 0 µM) was 95.7%, the viability at 24 h, 100 µM ([1]; BZL 100.0 µM + LTD-CPH-CFZ 0 µM) was 92.9% and the “DRI BZL” value ([2]; BZL 0.10 µM + LTD-CPH-CFZ 3.40 µM (1/25 IC50)) was 16.63 ± 2.78. The “DRI BZL” value ([2]; BZL 0.10 µM + LTD-CPH-CFZ 8.50 µM (1/10 IC50)) was 73.67 ± 4.95, the “DRI BZL” value ([2]; BZL 0.10 µM + LTD-CPH-CFZ 17.00 µM (1/5 IC50)) was 374.17 ± 32.50 and the “DRI BZL” value ([2]; BZL 0.10 µM + LTD-CPH-CFZ 42.50 µM (1/2 IC50)) was 923.66 ± 175.14. The “DRI BZL” value ([2]; BZL 1.00 µM + LTD-CPH-CFZ 3.40 µM (1/25 IC50)) was 5.12 ± 0.06, the “DRI BZL” value ([2]; BZL 1.00 µM + LTD-CPH-CFZ 8.50 µM (1/10 IC50)) was 13.27 ± 2.61 and the “DRI BZL” value ([2]; BZL 1.00 µM + LTD-CPH-CFZ 17.00 µM (1/5 IC50), listed as BZL) was 54 and 53.83 ± 6.79. The “DRI BZL” value ([2]; BZL 1.00 µM + LTD-CPH-CFZ 42.50 µM (1/2 IC50)) was 157.01 ± 24.63, the “DRI BZL” value ([2]; BZL 5.00 µM + LTD-CPH-CFZ 3.40 µM (1/25 IC50)) was 2.45 ± 0.40 and the “DRI BZL” value ([2]; BZL 5.00 µM + LTD-CPH-CFZ 8.50 µM (1/10 IC50)) was 5.48 ± 0.48. For the same molecule, the “DRI BZL” value ([2]; BZL 5.00 µM + LTD-CPH-CFZ 17.00 µM (1/5 IC50)) was 10.31 ± 1.72, the “DRI BZL” value ([2]; BZL 5.00 µM + LTD-CPH-CFZ 42.50 µM (1/2 IC50)) was 63.09 ± 8.25 and the “DRI BZL” value ([2]; BZL 10.00 µM + LTD-CPH-CFZ 3.40 µM (1/25 IC50)) was 3.89 ± 0.11. The “DRI BZL” value ([2]; BZL 10.00 µM + LTD-CPH-CFZ 8.50 µM (1/10 IC50)) was 5.45 ± 0.19, the “DRI BZL” value ([2]; BZL 10.00 µM + LTD-CPH-CFZ 17.00 µM (1/5 IC50)) was 10.20 ± 0.87 and the “DRI BZL” value ([2]; BZL 10.00 µM + LTD-CPH-CFZ 42.50 µM (1/2 IC50)) was 45.77 ± 3.03. The “DRI BZL” value ([2]; BZL 20.00 µM + LTD-CPH-CFZ 3.40 µM (1/25 IC50)) was 5.88 ± 0.56, the “DRI BZL” value ([2]; BZL 20.00 µM + LTD-CPH-CFZ 8.50 µM (1/10 IC50)) was 7.44 ± 0.23 and the “DRI BZL” value ([2]; BZL 20.00 µM + LTD-CPH-CFZ 17.00 µM (1/5 IC50)) was 10.94 ± 1.56. The “DRI BZL” value ([2]; BZL 20.00 µM + LTD-CPH-CFZ 42.50 µM (1/2 IC50)) was 68.51 ± 13.29, the “Dose BZL alone” value ([2]; same effect (Fa 0.112) as BZL 0.10 µM + LTD-CPH-CFZ 3.40 µM) was 1.66 ± 0.28 µM and the “Dose BZL alone” value ([2]; same effect (Fa 0.257) as BZL 1.00 µM + LTD-CPH-CFZ 3.40 µM) was 5.12 ± 0.06 µM. The “Dose BZL alone” value ([2]; same effect (Fa 0.324) as BZL 0.10 µM + LTD-CPH-CFZ 8.50 µM) was 7.37 ± 0.49 µM, the “Dose BZL alone” value ([2]; same effect (Fa 0.430) as BZL 5.00 µM + LTD-CPH-CFZ 3.40 µM) was 12.27 ± 2.01 µM and the “Dose BZL alone” value ([2]; same effect (Fa 0.447) as BZL 1.00 µM + LTD-CPH-CFZ 8.50 µM) was 13.27 ± 2.61 µM. The “Dose BZL alone” value ([2]; same effect (Fa 0.609) as BZL 5.00 µM + LTD-CPH-CFZ 8.50 µM) was 27.38 ± 2.41 µM, the “Dose BZL alone” value ([2]; same effect (Fa 0.673) as BZL 0.10 µM + LTD-CPH-CFZ 17.00 µM) was 37.42 ± 3.25 µM and the “Dose BZL alone” value ([2]; same effect (Fa 0.682) as BZL 10.00 µM + LTD-CPH-CFZ 3.40 µM) was 38.95 ± 1.06 µM. For the same molecule, the “Dose BZL alone” value ([2]; same effect (Fa 0.732) as BZL 5.00 µM + LTD-CPH-CFZ 17.00 µM) was 51.57 ± 8.60 µM, the “Dose BZL alone” value ([2]; same effect (Fa 0.740) as BZL 1.00 µM + LTD-CPH-CFZ 17.00 µM) was 53.83 ± 6.79 µM and the “Dose BZL alone” value ([2]; same effect (Fa 0.743) as BZL 10.00 µM + LTD-CPH-CFZ 8.50 µM) was 54.45 ± 1.86 µM. The “Dose BZL alone” value ([2]; same effect (Fa 0.821) as BZL 0.10 µM + LTD-CPH-CFZ 42.50 µM) was 92.37 ± 17.51 µM, the “Dose BZL alone” value ([2]; same effect (Fa 0.835) as BZL 10.00 µM + LTD-CPH-CFZ 17.00 µM) was 101.97 ± 8.68 µM and the “Dose BZL alone” value ([2]; same effect (Fa 0.852) as BZL 20.00 µM + LTD-CPH-CFZ 3.40 µM) was 117.55 ± 11.14 µM. For the same molecule, the “Dose BZL alone” value ([2]; same effect (Fa 0.877) as BZL 20.00 µM + LTD-CPH-CFZ 8.50 µM) was 148.83 ± 4.56 µM.
